The nature of series [1]: Photostability of dye-labeled secondary antibody in fixed NIH3T3 cells (fluorescence intensity vs exposure number). It counts as physicochemical. To be noted: FIG. 3B, compared with IRDye 680 and Alexa Fluor 680. The method, then:
LI-COR IRDye 700DX is shown in FIG. 3A which has multiple charged groups. NIH3T3 cells were fixed and permeabilized, followed by incubation with rabbit anti-histone primary antibody and goat anti-rabbit secondary antibody labeled with IRDye 680, IRDye 700DX, or Alexa Fluor 680. Images were recorded in movies of 2-second exposures by a Roper Micromax CCD in a Zeiss Axiovert S100 microscope. The mean fluorescence intensity of the field is plotted against exposure number (FIG. 3B).

A further series addresses neutravidin (Gallus gallus, UniProt P02701). To be noted: at each individual immobilized biotin molecule, picomolar neutravidin in solution; cited from earlier work.

Chain of neutravidin (P02701 25-152): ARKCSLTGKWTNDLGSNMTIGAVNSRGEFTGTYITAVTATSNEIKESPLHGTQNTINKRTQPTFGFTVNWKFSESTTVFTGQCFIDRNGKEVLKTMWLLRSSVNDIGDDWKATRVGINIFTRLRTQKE

Take `C[Si](C)(CCC[N+](CCCS(=O)(=O)[O-])(CCCS(=O)(=O)[O-])CCCS(=O)(=O)[O-])O[Si]1(O[Si](C)(C)CCC[N+](CCCS(=O)(=O)[O-])(CCCS(=O)(=O)[O-])CCCS(=O)(=O)[O-])n2c3c4ccccc4c2N=C2N=C(N=c4c5ccccc5c(n41)=NC1=NC(=N3)c3ccccc31)c1cccc(OCCCOC(=O)NCCCCCC(=O)ON3C(=O)CCC3=O)c12.[Na+].[Na+].[Na+].[Na+]` (centres unmarked) [IRDye, 700DX]: the photostability entry in series [1] is on record as “superior”.
With `O=C(O)CCCC[C@@H]1SC[C@@H]2NC(=O)N[C@@H]21` [biotin], the diffusion-limited binding rate at neutravidin is 1.9e+08 M⁻¹ s⁻¹.

Values taken from patent US20110065597A1, “SINGLE MOLECULE PROTEOMICS WITH DYNAMIC PROBES” (LI-COR, INC., priority 2009, published 2011).
